Target: T1, CCR2 (Homo sapiens, UniProt P41597)
T1 construct: host or cells: THP-1 (human monocytic cell line)
Experiment: MCP-1 Receptor Binding Assay in THP-1 Cells
Conditions: read-out: MCP1B_v3 IC50
Method in brief: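 Human monocytic THP-1 cells incubated 2 h at 30 °C with 0.5 nM 125I-MCP-1 and varying concentrations of test compound or unlabelled MCP-1. Cells filter-harvested and counted by scintillation; blank subtracted, compared with vehicle; nonspecific binding with 1 μM cold MCP-1.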

T1 sequence (P41597 whole entry): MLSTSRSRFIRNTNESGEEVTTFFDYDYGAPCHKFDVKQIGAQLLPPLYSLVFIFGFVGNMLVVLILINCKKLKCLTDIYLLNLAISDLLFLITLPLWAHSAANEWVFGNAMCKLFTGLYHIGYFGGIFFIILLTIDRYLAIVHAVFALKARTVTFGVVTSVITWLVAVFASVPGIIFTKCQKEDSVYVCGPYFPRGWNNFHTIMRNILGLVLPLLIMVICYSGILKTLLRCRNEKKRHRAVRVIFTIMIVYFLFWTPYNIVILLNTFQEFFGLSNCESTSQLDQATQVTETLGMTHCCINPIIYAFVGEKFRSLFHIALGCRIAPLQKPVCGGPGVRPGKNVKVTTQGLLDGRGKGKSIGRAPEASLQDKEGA

SMILES	IC50 [nM]
COC1COCCC1N[C@@H]1C[C@H]2C(=O)NC[C@@]2(C(=O)N2CCc3ncc(C(F)(F)F)cc3C2)C1 (relative stereo) [Example 118, (3aR,5R,6aR)-5-(((3S*,4S*)-3-Methoxytetrahydro-2H-pyran-4-yl)amino)-3a-(3-(trifluoromethyl)-5,6,7,8-tetrahydro-1,6-naphthyridine-6-carbonyl)hexahydro-cyclopenta[c]pyrrol-(2H)-one]	22800
COC1COCCC1N[C@@H]1C[C@H]2CNC(=O)[C@@]2(C(=O)N2CCc3ncc(C(F)(F)F)cc3C2)C1 (relative stereo) [Example 119, (3aR,5R,6aR)-5-(((3S*,4S*)-3-Methoxytetrahydro-2H-pyran-4-yl)amino)-6a-(3-(trifluoromethyl)-5,6,7,8-tetrahydro-1,6-naphthyridine-6-carbonyl)hexahydrocyclopenta-[c]pyrrol-1(2H)-one]	12000
COCCN[C@@H]1C[C@H]2CN(C(N)=O)C[C@@]2(C(=O)N2CCc3ncc(C(F)(F)F)cc3C2)C1 [Example 7]	5060
NC(=O)N1C[C@@H]2C[C@@H](NC3CCOCC3)C[C@]2(C(=O)N2CCc3ncc(C(F)(F)F)cc3C2)C1 [Example 8]	170
CO[C@@H]1COCC[C@@H]1N[C@@H]1C[C@H]2CN(C(=O)OCCC3CCOCC3)C[C@@]2(C(=O)N2CCc3ncc(C(F)(F)F)cc3C2)C1 [Example 43, (3aR,5R,6aR)-2-(Tetrahydro-2H-pyran-4-yl)ethyl 5-(((3S,4S)-3-methoxytetrahydro-2H-pyran-4-yl)amino)-3a-(3-(trifluoromethyl)-5,6,7,8-tetrahydro-1,6-naphthyridine-6-carbonyl)hexahydrocyclopenta[c]pyrrole-2(1H)-carboxylate]	30
CO[C@H]1COCC[C@H]1N[C@@H]1C[C@H]2CN(C(=O)OCCC3CCOCC3)C[C@@]2(C(=O)N2CCc3ncc(C(F)(F)F)cc3C2)C1 [Example 44, (3aR,5R,6aR)-2-(Tetrahydro-2H-pyran-4-yl)ethyl 5-(((3R,4R)-3-methoxytetrahydro-2H-pyran-4-yl)amino)-3a-(3-(trifluoromethyl)-5,6,7,8-tetrahydro-1,6-naphthyridine-6-carbonyl)hexahydrocyclopenta[c]pyrrole-2(1H)-carboxylate]	80
COC1COCCC1N[C@@H]1C[C@H]2CN(C(=O)OCc3cccc(C#N)c3)C[C@@]2(C(=O)N2CCc3ncc(C(F)(F)F)cc3C2)C1 (stereo partly drawn) [Example 59, (3aR,5R,6aR)-3-Cyanobenzyl 5-((3-methoxytetrahydro-2H-pyran-4-yl)amino)-3a-(3-(trifluoromethyl)-5,6,7,8-tetrahydro-1,6-naphthyridine-6-carbonyl)hexahydrocyclopenta-[c]pyrrole-2(1H)-carboxylate]	220

Second part, the molecule after the results:

IC50 [nM]	SMILES
120	COC1COCCC1N[C@@H]1C[C@H]2CN(c3ccccc3)C[C@@]2(C(=O)N2CCc3ncc(C(F)(F)F)cc3C2)C1 (relative stereo) [Example 108, ((3aR,5R,6aR)-5-(((3S*,4S*)-3-Methoxytetrahydro-2H-pyran-4-yl)amino)-2-phenyloctahydrocyclopenta[c]pyrrol-3a-yl)(3-(trifluoromethyl)-7,8-dihydro-1,6-naphthyridin-6(5H)-yl)methanone]
150	COC1COCCC1N[C@@H]1C[C@H]2CN(c3nccs3)C[C@@]2(C(=O)N2CCc3ncc(C(F)(F)F)cc3C2)C1 (relative stereo) [Example 110, ((3aR,5R,6aR)-5-(((3S*,4S*)-3-Methoxytetrahydro-2H-pyran-4-yl)amino)-2-(thiazol-2-yl)octahydrocyclopenta[c]pyrrol-3a-yl)(3-(trifluoromethyl)-7,8-dihydro-1,6-naphthyridin-6(5H)-yl)methanone]
270	COC1COCCC1N[C@@H]1C[C@H]2CN(c3nc(C)no3)C[C@@]2(C(=O)N2CCc3ncc(C(F)(F)F)cc3C2)C1 (relative stereo) [Example 111, ((3aR,5R,6aR)-5-(((3S*,4S*)-3-Methoxytetrahydro-2H-pyran-4-yl)amino)-2-(3-methyl-1,2,4-oxadiazol-5-yl)octahydrocyclopenta[c]pyrrol-3a-yl)(3-(trifluoromethyl)-7,8-dihydro-1,6-naphthyridin-6(5H)-yl)methanone]
3660	COC1COCCC1N[C@@H]1C[C@H]2CN(C3=NCCS3)C[C@@]2(C(=O)N2CCc3ncc(C(F)(F)F)cc3C2)C1 (relative stereo) [Example 112, ((3aR,5R,6aR)-2-(4,5-Dihydrothiazol-2-yl)-5-(((3S*,4S*)-3-methoxytetrahydro-2H-pyran-4-yl)amino)octahydrocyclopenta[c]pyrrol-3a-yl)(3-(trifluoromethyl)-7,8-dihydro-1,6-naphthyridin-6(5H)-yl)methanone]
100	COC1COCCC1N[C@@H]1C[C@H]2CN(C3=NCCO3)C[C@@]2(C(=O)N2CCc3ncc(C(F)(F)F)cc3C2)C1 (relative stereo) [Example 113, ((3aR,5R,6aR)-2-(4,5-Dihydrooxazol-2-yl)-5-(((3S*,4S*)-3-methoxytetrahydro-2H-pyran-4-yl)amino)octahydrocyclopenta[c]pyrrol-3a-yl)(3-(trifluoromethyl)-7,8-dihydro-1,6-naphthyridin-6(5H)-yl)methanone]
370	COC1COCCC1N[C@@H]1C[C@H]2CN(C=O)C[C@@]2(C(=O)N2CCc3ncc(C(F)(F)F)cc3C2)C1 (relative stereo) [Example 114, (3aR,5R,6aR)-5-(((3S*,4S*)-3-Methoxytetrahydro-2H-pyran-4-yl)amino)-3a-(3-(trifluoromethyl)-5,6,7,8-tetrahydro-1,6-naphthyridine-6-carbonyl)hexahydrocyclopenta-[c]pyrrole-2(1H)-carbaldehyde]
40	COC1COCCC1N[C@@H]1C[C@H]2CN(/C(N)=N\C#N)C[C@@]2(C(=O)N2CCc3ncc(C(F)(F)F)cc3C2)C1 (relative stereo) [Example 115, (3aR,5R,6aR,E)-N′-Cyano-5-(((3S*,4S*)-3-methoxytetrahydro-2H-pyran-4-yl)amino)-3a-(3-(trifluoromethyl)-5,6,7,8-tetrahydro-1,6-naphthyridine-6-carbonyl)hexahydrocyclopenta-[c]pyrrole-2(1H)-carboximidamide]
1800	COC1COCCC1N[C@@H]1C[C@H]2CN(/C(N)=N/O)C[C@@]2(C(=O)N2CCc3ncc(C(F)(F)F)cc3C2)C1 (relative stereo) [Example 116, (3aR,5R,6aR,E)-N′-Hydroxy-5-(((3S*,4S*)-3-methoxytetrahydro-2H-pyran-4-yl)amino)-3a-(3-(trifluoromethyl)-5,6,7,8-tetrahydro-1,6-naphthyridine-6-carbonyl)hexahydro-cyclopenta[c]pyrrole-2(1H)-carboximidamide]
5400	COC1COCCC1N[C@@H]1C[C@H]2CN(C#N)C[C@@]2(C(=O)N2CCc3ncc(C(F)(F)F)cc3C2)C1 (relative stereo) [Example 117, (3aR,5R,6aR)-5-(((3S*,4S*)-3-Methoxytetrahydro-2H-pyran-4-yl)amino)-3a-(3-(trifluoromethyl)-5,6,7,8-tetrahydro-1,6-naphthyridine-6-carbonyl)hexahydrocyclopenta[c]pyrrole-2(1H)-carbonitrile]
30	CO[C@@H]1COCC[C@@H]1N[C@@H]1C[C@H]2CN(C(N)=O)C[C@@]2(C(=O)N2CCc3ncc(C(F)(F)F)cc3C2)C1 [Example 3]
40	CO[C@H]1COCC[C@H]1N[C@@H]1C[C@H]2CN(C(N)=O)C[C@@]2(C(=O)N2CCc3ncc(C(F)(F)F)cc3C2)C1 [Example 4]
